According to US20250353864A1, “INDAZOLE CONTAINING MACROCYCLES AND THEIR USE” (BLOSSOMHILL THERAPEUTICS, INC., priority 2022, published 2025):
pIC50: −log10 of the molar value.

Legend:
Type in all cases: biochemical
[1] = target: EGFR WT (Homo sapiens (Human), UniProt P00533); experiment: HotSpot radiometric kinase assay (Reaction Biology), EGFR WT; settings: 10 μM ATP
In short: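 Kinase, substrate and cofactors are mixed in 20 mM Hepes pH 7.5 with 10 mM MgCl2, 1 mM EGTA, 2 mM DTT and 1% DMSO. Compound is added, and about 20 min later ATP/33P-ATP (10 μM final) starts a 120-min room-temperature reaction, which is then spotted onto P81 paper.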

[2] = target: EGFR (D770_N771insNPG) (Homo sapiens (Human), UniProt P00533, INS770NPG); experiment: HotSpot radiometric kinase assay, EGFR (D770_N771insNPG); settings: 10 μM ATP, read-out: EGFR (Δ770_N771insNPG) IC50
In short: (§1)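 IC50 values come from curve fits of ^33P incorporation captured on P81 filters after acid washing. Kinase reactions ran 120 min at room temperature with 10 μM ATP, added about 20 min after compound. Buffer was Hepes pH 7.5 containing Mg, DTT and 1% DMSO.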

[3] = target: EGFR Δ746-750 mutant (Homo sapiens (Human), UniProt P00533, DEL746-750); experiment: HotSpot radiometric kinase assay, EGFR Δ746-750 mutant; settings: 10 μM ATP
In short: as §1

[4] = target: EGFR Δ746-750/C797S mutant (Homo sapiens (Human), UniProt P00533, C797S/DEL746-750); experiment: HotSpot radiometric kinase assay, EGFR Δ746-750/C797S mutant; settings: 10 μM ATP
In short: as §1

[5] = target: EGFR L858R mutant (Homo sapiens (Human), UniProt P00533, L858R); experiment: HotSpot radiometric kinase assay, EGFR L858R mutant; settings: 10 μM ATP
In short: as §1

[6] = target: EGFR L858R/T790M mutant (Homo sapiens (Human), UniProt P00533, L858R/T790M); experiment: HotSpot radiometric kinase assay, EGFR L858R/T790M mutant; settings: 10 μM ATP
In short: as §1

[7] = target: EGFR L858R/T790M/C797S mutant (Homo sapiens (Human), UniProt P00533, C797S/L858R/T790M); experiment: HotSpot radiometric kinase assay, EGFR L858R/T790M/C797S mutant; settings: 10 μM ATP
In short: as §1

[8] = target: CLK1 (Homo sapiens (Human), UniProt P49759); experiment: Inhibition of CLK1 kinase activity evaluated at Nanosyn (ADP-Glo); settings: ADP-Glo luminescence
In short: (§2)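 Percent inhibition derived from luminescent ADP detection (ADP-Glo), normalised to DMSO-only and enzyme-free wells. Reactions ran in HEPES pH 7.5 buffer with Mg2+, Triton X-100 and BSA, 1% DMSO, ATP-initiated, for an assay-specific time.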

[9] = target: CLK2 (Homo sapiens (Human), UniProt P49760); experiment: Inhibition of CLK2 kinase activity evaluated at Nanosyn (ADP-Glo); settings: ADP-Glo luminescence
In short: as §2

[10] = target: CLK3 (Homo sapiens (Human), UniProt P49761); experiment: Inhibition of CLK3 kinase activity evaluated at Nanosyn (ADP-Glo); settings: ADP-Glo luminescence
In short: as §2

[11] = target: CLK4 (Homo sapiens (Human), UniProt Q9HAZ1); experiment: Inhibition of CLK4 kinase activity evaluated at Nanosyn (ADP-Glo); settings: ADP-Glo luminescence
In short: as §2

Sequence of EGFR L858R mutant (P00533 25-1210 L858R): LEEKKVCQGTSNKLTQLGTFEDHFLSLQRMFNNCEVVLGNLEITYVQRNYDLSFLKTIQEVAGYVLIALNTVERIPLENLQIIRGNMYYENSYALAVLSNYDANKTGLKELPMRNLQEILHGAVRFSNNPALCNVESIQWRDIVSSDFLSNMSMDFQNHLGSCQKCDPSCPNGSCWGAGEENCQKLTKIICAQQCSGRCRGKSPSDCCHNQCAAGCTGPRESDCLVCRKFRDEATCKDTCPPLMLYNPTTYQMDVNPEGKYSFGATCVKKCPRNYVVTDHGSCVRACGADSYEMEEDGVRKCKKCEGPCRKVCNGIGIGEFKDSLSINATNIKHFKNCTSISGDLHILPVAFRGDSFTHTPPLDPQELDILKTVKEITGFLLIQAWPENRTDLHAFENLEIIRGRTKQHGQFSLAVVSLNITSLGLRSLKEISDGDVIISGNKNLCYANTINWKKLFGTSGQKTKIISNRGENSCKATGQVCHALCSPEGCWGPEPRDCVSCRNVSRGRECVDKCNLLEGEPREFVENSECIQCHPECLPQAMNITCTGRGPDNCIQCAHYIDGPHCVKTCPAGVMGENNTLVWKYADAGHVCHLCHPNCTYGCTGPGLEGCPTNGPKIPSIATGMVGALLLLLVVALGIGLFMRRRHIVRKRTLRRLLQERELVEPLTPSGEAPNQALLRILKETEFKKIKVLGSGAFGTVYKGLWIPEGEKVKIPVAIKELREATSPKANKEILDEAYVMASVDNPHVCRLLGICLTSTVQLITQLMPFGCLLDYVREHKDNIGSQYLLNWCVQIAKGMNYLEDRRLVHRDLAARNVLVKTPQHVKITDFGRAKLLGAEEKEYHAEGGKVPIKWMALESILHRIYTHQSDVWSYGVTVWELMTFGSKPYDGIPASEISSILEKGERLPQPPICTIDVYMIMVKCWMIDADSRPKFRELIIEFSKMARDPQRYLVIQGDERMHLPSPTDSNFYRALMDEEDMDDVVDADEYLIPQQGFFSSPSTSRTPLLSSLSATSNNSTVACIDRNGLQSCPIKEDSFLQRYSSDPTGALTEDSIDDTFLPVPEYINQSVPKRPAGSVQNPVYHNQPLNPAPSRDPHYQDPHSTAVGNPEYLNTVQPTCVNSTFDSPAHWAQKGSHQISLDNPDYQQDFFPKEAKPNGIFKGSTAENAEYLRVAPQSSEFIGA
Sequence of CLK2 (P49760 whole entry): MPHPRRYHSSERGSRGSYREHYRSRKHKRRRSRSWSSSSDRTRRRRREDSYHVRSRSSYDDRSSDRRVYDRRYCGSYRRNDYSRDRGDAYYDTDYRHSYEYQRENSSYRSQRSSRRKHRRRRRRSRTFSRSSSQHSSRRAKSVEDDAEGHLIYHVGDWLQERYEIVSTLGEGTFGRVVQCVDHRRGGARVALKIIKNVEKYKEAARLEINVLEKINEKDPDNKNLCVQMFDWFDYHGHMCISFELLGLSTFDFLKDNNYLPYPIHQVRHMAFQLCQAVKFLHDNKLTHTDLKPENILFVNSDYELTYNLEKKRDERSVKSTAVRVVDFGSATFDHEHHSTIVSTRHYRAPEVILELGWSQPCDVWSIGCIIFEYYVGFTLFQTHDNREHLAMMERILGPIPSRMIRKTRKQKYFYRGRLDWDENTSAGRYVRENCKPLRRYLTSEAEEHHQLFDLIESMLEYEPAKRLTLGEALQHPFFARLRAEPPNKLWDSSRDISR
Sequence of CLK1 (P49759 whole entry): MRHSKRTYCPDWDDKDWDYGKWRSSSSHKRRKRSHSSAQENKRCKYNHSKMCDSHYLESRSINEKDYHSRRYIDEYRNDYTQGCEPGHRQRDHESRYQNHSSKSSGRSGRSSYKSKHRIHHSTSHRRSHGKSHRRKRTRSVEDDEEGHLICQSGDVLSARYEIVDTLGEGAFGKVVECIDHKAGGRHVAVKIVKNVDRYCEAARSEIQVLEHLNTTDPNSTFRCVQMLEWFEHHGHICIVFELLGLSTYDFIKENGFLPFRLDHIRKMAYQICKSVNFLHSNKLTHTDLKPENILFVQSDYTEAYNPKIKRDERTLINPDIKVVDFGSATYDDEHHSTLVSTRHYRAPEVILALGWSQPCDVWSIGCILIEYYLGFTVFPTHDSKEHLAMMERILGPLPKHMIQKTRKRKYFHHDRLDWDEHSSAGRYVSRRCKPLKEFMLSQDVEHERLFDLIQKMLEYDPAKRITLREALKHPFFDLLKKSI
Sequence of CLK4 (Q9HAZ1 whole entry): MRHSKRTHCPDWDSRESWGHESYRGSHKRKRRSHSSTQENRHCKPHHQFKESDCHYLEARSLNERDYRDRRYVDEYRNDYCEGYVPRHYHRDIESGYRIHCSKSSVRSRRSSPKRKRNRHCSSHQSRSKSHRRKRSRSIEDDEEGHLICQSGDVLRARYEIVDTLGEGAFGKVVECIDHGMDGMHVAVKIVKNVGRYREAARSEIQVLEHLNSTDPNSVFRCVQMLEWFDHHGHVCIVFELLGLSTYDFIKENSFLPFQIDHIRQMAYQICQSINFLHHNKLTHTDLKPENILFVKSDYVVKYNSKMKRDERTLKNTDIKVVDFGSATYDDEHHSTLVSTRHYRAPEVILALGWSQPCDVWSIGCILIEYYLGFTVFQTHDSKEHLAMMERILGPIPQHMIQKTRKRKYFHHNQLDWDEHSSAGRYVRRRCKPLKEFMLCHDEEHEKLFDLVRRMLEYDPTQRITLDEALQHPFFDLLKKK
Sequence of EGFR Δ746-750 mutant (P00533 other isoform, or with tags, fused parts or gaps del 1-668/del 746-750 limits assumed): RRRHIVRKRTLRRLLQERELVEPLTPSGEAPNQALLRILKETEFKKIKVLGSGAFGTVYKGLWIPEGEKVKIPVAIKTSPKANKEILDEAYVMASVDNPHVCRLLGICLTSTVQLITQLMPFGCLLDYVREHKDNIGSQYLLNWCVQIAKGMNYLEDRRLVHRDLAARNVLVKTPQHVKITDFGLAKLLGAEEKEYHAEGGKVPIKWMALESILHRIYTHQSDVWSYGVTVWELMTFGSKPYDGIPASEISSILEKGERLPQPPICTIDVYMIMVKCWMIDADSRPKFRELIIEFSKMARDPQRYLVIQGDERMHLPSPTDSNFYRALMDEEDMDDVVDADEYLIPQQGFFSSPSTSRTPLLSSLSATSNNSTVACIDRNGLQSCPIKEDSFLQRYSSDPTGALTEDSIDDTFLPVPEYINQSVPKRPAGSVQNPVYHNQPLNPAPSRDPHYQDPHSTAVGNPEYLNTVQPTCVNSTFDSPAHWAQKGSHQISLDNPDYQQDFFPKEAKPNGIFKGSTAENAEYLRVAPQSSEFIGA
Sequence of EGFR Δ746-750/C797S mutant (P00533 other isoform, or with tags, fused parts or gaps C797S/del 1-668/del 746-750 limits assumed): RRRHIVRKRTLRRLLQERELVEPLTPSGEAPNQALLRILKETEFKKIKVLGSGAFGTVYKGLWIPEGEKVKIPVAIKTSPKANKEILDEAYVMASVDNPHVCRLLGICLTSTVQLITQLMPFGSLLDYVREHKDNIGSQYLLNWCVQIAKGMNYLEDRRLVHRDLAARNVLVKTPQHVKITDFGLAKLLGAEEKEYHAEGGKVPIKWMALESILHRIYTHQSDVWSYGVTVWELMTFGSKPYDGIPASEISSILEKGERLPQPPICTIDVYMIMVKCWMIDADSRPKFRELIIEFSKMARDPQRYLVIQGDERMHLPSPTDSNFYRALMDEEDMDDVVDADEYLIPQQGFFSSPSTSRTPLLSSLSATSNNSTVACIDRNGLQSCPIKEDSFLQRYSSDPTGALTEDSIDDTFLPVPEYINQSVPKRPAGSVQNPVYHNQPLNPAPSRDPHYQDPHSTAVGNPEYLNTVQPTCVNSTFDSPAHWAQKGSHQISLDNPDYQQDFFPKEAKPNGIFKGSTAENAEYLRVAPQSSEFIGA
Sequence of EGFR L858R/T790M/C797S mutant (P00533 25-1210 T790M/C797S/L858R): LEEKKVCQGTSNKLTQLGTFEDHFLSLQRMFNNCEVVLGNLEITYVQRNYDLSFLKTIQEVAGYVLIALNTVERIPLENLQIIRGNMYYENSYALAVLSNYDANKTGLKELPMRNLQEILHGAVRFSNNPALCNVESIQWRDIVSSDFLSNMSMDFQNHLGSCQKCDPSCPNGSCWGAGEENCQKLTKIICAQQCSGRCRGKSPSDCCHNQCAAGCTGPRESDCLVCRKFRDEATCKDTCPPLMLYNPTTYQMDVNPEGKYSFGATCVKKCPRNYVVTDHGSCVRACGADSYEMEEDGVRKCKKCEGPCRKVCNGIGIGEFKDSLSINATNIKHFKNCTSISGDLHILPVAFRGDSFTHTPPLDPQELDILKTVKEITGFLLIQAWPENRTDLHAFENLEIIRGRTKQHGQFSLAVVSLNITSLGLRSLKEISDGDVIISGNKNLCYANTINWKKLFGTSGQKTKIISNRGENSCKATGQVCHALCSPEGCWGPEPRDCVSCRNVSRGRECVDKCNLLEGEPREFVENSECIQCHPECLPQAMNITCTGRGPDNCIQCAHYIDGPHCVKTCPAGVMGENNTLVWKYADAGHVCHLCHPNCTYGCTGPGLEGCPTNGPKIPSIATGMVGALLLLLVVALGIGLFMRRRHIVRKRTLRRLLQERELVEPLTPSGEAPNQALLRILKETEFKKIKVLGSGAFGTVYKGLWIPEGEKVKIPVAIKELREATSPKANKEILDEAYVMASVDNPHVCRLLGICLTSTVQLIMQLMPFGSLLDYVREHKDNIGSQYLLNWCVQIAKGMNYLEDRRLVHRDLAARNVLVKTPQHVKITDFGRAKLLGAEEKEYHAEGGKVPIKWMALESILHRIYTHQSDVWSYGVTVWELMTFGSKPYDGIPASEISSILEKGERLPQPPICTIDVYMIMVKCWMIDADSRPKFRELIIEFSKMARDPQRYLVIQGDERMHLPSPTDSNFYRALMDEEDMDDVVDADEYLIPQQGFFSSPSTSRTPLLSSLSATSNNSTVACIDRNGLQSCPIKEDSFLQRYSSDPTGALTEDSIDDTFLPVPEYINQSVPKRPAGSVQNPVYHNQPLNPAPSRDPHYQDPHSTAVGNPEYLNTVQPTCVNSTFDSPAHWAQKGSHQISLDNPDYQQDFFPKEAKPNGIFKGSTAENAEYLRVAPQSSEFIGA

Row | SMILES | pIC50 [1] | pIC50 [2] | pIC50 [3] | pIC50 [4] | pIC50 [5] | pIC50 [6] | pIC50 [7] | pIC50 [8] | pIC50 [9] | pIC50 [10] | pIC50 [11]
1 | CCOc1nn(CCO)c2c1/C=C/c1n[nH]c3cc(F)c(cc13)-c1cnn(C)c1O[C@@H](C)CN(C)C2 [Example 172, 2-[(10S,17E)-16-ethoxy-19-fluoro-8,10,12-trimethyl-2,8,10,11,12,13-hexahydro-14H-3,5-ethenotripyrazolo[3,4-f:3′,4′-j:4″,3″- n][1,4]oxazacyclopentadecin-14-yl]ethan-1-ol] | 8.74 | 8.18 | 8.68 | 9.16 | 9.22 | 9.32 | 8.87 | 9.49 | 10.10 | 7.19 | 9.23
2 | CC(C)Oc1nn(CCO)c2c1/C=C/c1n[nH]c3ccc(cc13)-c1cnn(C)c1OC(CF)CN(C)C2 (centres unmarked) [Example 225, 2-{(17E)-10-(fluoromethyl)-8,12-dimethyl-16-[(propan-2-yl)oxy]-2,8,10,11,12,13-hexahydro-14H-3,5-ethenotripyrazolo[3,4-f:3′,4′-j:4″,3″-n][1,4]oxazacyclopentadecin-14-yl}ethan-1-ol] | 7.29 | 7.18 | 8.27 | 8.84 | 7.91 | 9.24 | 9.68 | 8.95 | 9.31 | 7.11 | 8.72
3 | CCOc1nn(CCO)c2c1/C=C/c1n[nH]c3ccc(cc13)-c1cnn(C)c1O[C@@H](CC)CN(C)C2 [Example 260, 2-[(10S,17E)-16-ethoxy-10-ethyl-8,12-dimethyl-2,8,10,11,12,13-hexahydro-14H-3,5-ethenotripyrazolo[3,4-f:3′,4′-j:4″,3″-n][1,4]oxazacyclopentadecin-14-yl]ethan-1-ol] | 7.87 | 7.60 | 8.46 | 8.43 | 8.34 | 9.05 | 8.50 | 8.31 | 8.28 | 6.44 | 8.50
4 | CC(C)Oc1nn(CCO)c2c1/C=C/c1n[nH]c3cc(F)c(cc13)-c1cnn(C)c1O[C@H](C)[C@H]1CCCN1C2 (single isomer, unassigned) [Example 255] | 8.84 | 8.39 | 9.02 | 8.70 | 8.93 | 8.52 | 8.18 | 9.09 | 9.57 | 8.00 | 8.80
5 | CCOc1nn(C)c2c1/C=C/c1n[nH]c3ccc(cc13)-c1cnn(C)c1O[C@@H]1CCCN(C2)C1 [Example 160, (10R,19E)-18-ethoxy-8,16-dimethyl-2,8,10,11,12,13,15,16-octahydro-3,5-etheno-10,14-methanotripyrazolo[3,4-h:3′,4′-l:4″,3″- p][1,6]oxazacycloheptadecine] | 7.20 | 6.61 | 7.87 | 7.71 | 7.46 | 8.85 | 8.97 | 9.66 | 9.52 | 7.42 | 9.39
6 | CC(C)Oc1nn(CCO)c2c1/C=C/c1n[nH]c3ccc(cc13)-c1cnn(C)c1O[C@@H](C)CN(C)[C@@H]2C [Example 223] | 7.37 | 6.99 | 8.39 | 8.51 | 8.15 | 9.21 | 9.47 | 9.07 | 9.55 | 7.52 | 8.68
7 | Cc1nn(C)c2c1/C=C/c1n[nH]c3ccc(cc13)-c1cnn(C)c1O[C@@H]1CCN(C2)C1 [Example 167, (10R,18E)-8,15,17-trimethyl-2,8,11,12,14,15-hexahydro-10H-3,5-etheno-10,13-methanotripyrazolo[3,4-g:3′,4′-k:4″,3″- 0][1,5]oxazacyclohexadecine] | 6.91 | 7.33 | 7.62 | 7.87 | 7.45 | 8.47 | 8.05 | 9.42 | 9.64 | 6.97 | 9.26
8 | Cn1ncc2c1OCCN1CC[C@H](C1)Oc1ccccc1/C=C/c1n[nH]c3ccc-2cc13 [Example 170, (10R,16E)-3-methyl-3,5,6,9,10,19-hexahydro-8H-20,22-etheno-7,10-methanodipyrazolo[3,4-i:4′,3′-m][1,8,5]benzodioxazacyclooctadecine] | 6.04 | 6.48 | 6.94 | 7.52 | 6.51 | 7.44 | 7.59 | 9.42 | 9.44 | 6.00 | 9.37
9 | CCOc1nn(CCO)c2c1/C=C/c1n[nH]c3ccc(cc13)-c1cnn(C)c1O[C@@H](C)CN(CC)C2 [Example 177, 2-[(10S,17E)-16-ethoxy-12-ethyl-8,10-dimethyl-2,8,10,11,12,13-hexahydro-14H-3,5-ethenotripyrazolo[3,4-f:3′,4′-j:4″,3″-n][1,4]oxazacyclopentadecin-14-yl]ethan-1-ol] | 9.17 | 8.81 | 9.25 | 9.12 | 9.42 | 9.22 | 8.75 | 9.33 | 9.64 | 7.23 | 8.97
10 | Cc1c2c(nn1C)/C=C/c1n[nH]c3ccc(cc13)-c1cnn(C)c1O[C@@H](C)CN(C(C)C)C2 [Example 233, (10S,17E)-8,10,14,15-tetramethyl-12-(propan-2-yl)-2,10,11,12,13,15-hexahydro-8H-3,5-ethenotripyrazolo[4,3-f:3′,4′-j:4″,3″- n][1,4]oxazacyclopentadecine] | 6.82 | 6.59 | 7.97 | 7.60 | 7.38 | 8.88 | 8.79 | 9.15 | 9.37 | 6.39 | 9.05
11 | CC(C)Oc1nn(CCO)c2c1/C=C/c1n[nH]c3ccc(cc13)-c1cnn(C)c1OC[C@H](C)N(C1CC1)C2 [Example 213, 2-{(11S,17E)-12-cyclopropyl-8,11-dimethyl-16-[(propan-2-yl)oxy]-2,8,10,11,12,13-hexahydro-14H-3,5-ethenotripyrazolo[3,4-f:3′,4′-j:4″,3″- n][1,4]oxazacyclopentadecin-14-yl}ethan-1-ol] | 6.53 | 6.37 | 7.68 | 8.29 | 7.08 | 9.38 | 9.70 | 8.24 | 8.21 | 9.00 | 8.29
12 | Cc1nn(CCO)c2c1/C=C/c1n[nH]c3ccc(cc13)-c1cnn(C)c1O[C@@H](C)CN(C)C2 [Example 61, 2-[(10S,17E)-8,10,12,16-tetramethyl-2,8,10,11,12,13-hexahydro-14H-3,5-ethenotripyrazolo[3,4-f:3′,4′-j:4″,3″- n][1,4]oxazacyclopentadecin-14-yl]ethan-1-ol] | 8.21 | 8.04 | 8.97 | 8.71 | 8.91 | 9.54 | 9.77 | 9.68 | 10.22 | 7.67 | 9.12
13 | CCOc1nn(C)c2c1/C=C/c1n[nH]c3ccc(cc13)-c1cnn(C)c1OC1CN(C2)C1 [Example 238, (17E)-16-ethoxy-8,14-dimethyl-2,8,10,11,13,14-hexahydro-3,5-etheno-10,12-methanotripyrazolo[3,4-f:3′,4′-j:4″,3″-n][1,4]oxazacyclopentadecine] | 6.69 | 6.66 | 7.76 | 7.38 | 7.14 | 7.99 | 7.93 | 9.05 | 8.61 | 6.00 | 8.97
